From US10154970B2, “Methods for immunomodulation of cancer and infectious disease therapy” (The Regents of the University of California, priority 2014, dated 2018)

How the values were obtained:
[1] = tested on: IFN-γ; test: IFN-γ mRNA expression in Jurkat cells by qRT-PCR, normalized with GAPDH; type: cell-based, human
Method: (§1) FIG. 1. Interferon gamma (IFN-γ) and interleukin (IL)-2 expression in human Jurkat cells following exposure to TRIP in vitro. Jurkat cells (2×10^6) were treated with different concentrations of TRIP as indicated for 24 hours. (A) IFN-γ and (B) IL-2 mRNA expression levels were detected by quantitative real-time polymerase chain reaction (qRT-PCR) and normalized with the expression of GAPDH. *p<0.05, **p<0.01, ***p<0.001.
FIG. 2. Effect of tamoxifen on TRIP-induced expression of IFN-γ in vitro. Jurkat cells (2×10^6) were treated with TRIP (2.5 μM) and/or tamoxifen (2.5 μM) for 24 hours. The expression levels of IFN-γ were analyzed by qRT-PCR and normalized with GAPDH. **p<0.01, ***p<0.005.
(§2) FIG. 3. Effects of TRIP alone and in combination with trifluoperazine (TFP) or LY294002 (LY) on IFN-γ and IL-2 in human Jurkat cells in vitro. Jurkat cells (2×10^6) were pretreated with different concentrations of (A, B) TFP (0, 0.1, 1.0, 5.0, and 10.0 μM) and (C, D) LY294002 (0, 1, 5, 10, and 25 μM) for 1 hour, then incubated with medium containing 2.5 μM of TRIP for 24 hours. (A, C) IFN-γ and (B, D) IL-2 mRNA expression levels were detected by qRT-PCR and normalized with the expression of GAPDH. *p<0.05, **p<0.01, ***p<0.001.
(§3) FIG. 4. Effects of calmodulin, PI3K and MAPK inhibition on TRIP-induced expression of IFN-γ and IL-2 in human Jurkat cells in vitro. Jurkat cells (2×10^6) were pretreated with PD98059 (50 μM), TFP (10 μM) and LY294002 (25 μM) for 1 hour, then incubated with medium containing 2.5 μM of TRIP for 24 hours. (A) IFN-γ and (B) IL-2 mRNA expression levels were detected by qRT-PCR and normalized with the expression of GAPDH. **p<0.01, ***p<0.001, ****p<0.0001.
(§4) The potential immune regulating effects of TRIP and the possible mechanism(s) involved were determined with in vitro experiments examining the expression of T cell activating cytokines in human acute T cell leukemia Jurkat cells. The expression of IFN-γ and IL-2 RNA following exposure to increasing concentrations of TRIP (i.e., ospemifene) were first examined, followed by the effects of combining tamoxifen with TRIP on the expression of these cytokines. Different inhibitors of key T cell activation pathways—trifluoperazine (TFP), an inhibitor of calmodulin, LY294002, an inhibitor of PI3K, and PD98059, a MAPK inhibitor—in combination with TRIP were assessed for their effects on TRIP-induced expression of IFN-γ and IL-2 in Jurkat cells.
(§5) Jurkat cells (2.0×10^6) were treated with different concentrations of TRIP as indicated on the x-axis for 24 hours. (A) IFN-γ and (B) IL-2 mRNA expression levels were detected by quantitative real-time polymerase chain reaction (qRT-PCR) and normalized with the expression of GAPDH. *p<0.05, **p<0.01, ***p<0.001.
The expression levels of IFN-γ were analyzed by qRT-PCR and normalized with GAPDH. **p<0.01, ***p<0.001.
(§6) T cell activation requires multiple signals including PI3K, MAPK and calcium signaling pathways, and in order to identify the potential mechanism through which TRIP affects immune activation, Jurkat cells (2.0×10^6) were pretreated with different concentrations of TFP (0, 0.1, 1.0, 5.0 and 10.0 μM) (A, B) or LY294002 (0, 1, 5, 10 and 25 μM) (C, D) for one hour, then incubated with medium containing 2.5 μM TRIP for 24 hours. IFN-γ and IL-2 expression levels were detected by qRT-PCR and normalized with the expression of GAPDH. *p<0.05, **p<0.01, ***p<0.001.
(§7) Jurkat cells (2×10^6) were pretreated with PD98059 (50 μM), TFP (10 μM) or LY294002 (25 μM) for one hour, then incubated with medium containing 2.5 μM TRIP for 24 hours. (A) IFN-γ and (B) IL-2 mRNA expression levels were detected by qRT-PCR and normalized with expression of GAPDH. **p<0.01, ***p<0.001, ****p<0.0001.
The effects on T cell activation of different functional group substitutions on the TRIP chemical structure (Formula Ia) were examined by measuring the expression of IFN-γ and IL-2 RNA in human acute T cell leukemia Jurkat cells in vitro. […]

[2] = tested on: IL-2; test: IL-2 mRNA expression in Jurkat cells by qRT-PCR, normalized with GAPDH; type: cell-based, human
Method: as §1, §2, §3, §4, §5, §6, §7
The effects on T cell activation of different functional group substitutions on the TRIP chemical structure (Formula Ia) were examined by measuring the expression of IFN-γ and IL-2 RNA in human acute T cell leukemia Jurkat cells in vitro.
A strong increase is defined as a ≥50% increase compared to the control. A moderate increase is defined as a 25-49% increase compared to the control. A weak increase is defined as a 0-24% increase compared to the control. No effect is when there was no increase compared to the control.

[3] = tested on: T-cell surface markers (CD4, CD8, PD-1, CD28); test: Experiment 5: T-cell surface markers of spleen lymphocytes by flow cytometry; type: in vivo, human MUC1.Tg C57BL/6 mice
Method: FIG. 11. Lymphocyte phenotypes following different hormonal treatments. (A) CD3+CD4+; (B) CD3+CD8+; (C) CD3+CD28+; (D) CD8+CD28+; (E) CD3+PD-1+; and (F) CD8+PD-1+; T cell surface markers were stained with indicated antibodies after […] of TRIP (100 mg/kg), estradiol (E2; 25 μg/kg), and letrozole (0.8 mg/kg) treatments (n=8 all groups).
(§8) A total of 32 female human MUC1.Tg C57BL/6 mice, starting at approximately six weeks of age, were treated with urethane as described (Wurz G T. et al., J. Transl. Med., 11:64 (2013)). Two weeks following the final dose of urethane (Week 17), the mice were randomized into four treatment groups of approximately equal average weight (n=8, all groups): Control (no treatment); TRIP (i.e., ospemifene) 100 mg/kg; estradiol 25 μg/kg; and letrozole 0.8 mg/kg. TRIP and letrozole were prepared in DMSO and peanut oil as described above in Experiment 2 and administered daily for 14 days by oral gavage (100 μL). Estradiol was dissolved in 100% ethanol, diluted in PBS to achieve the desired concentration, and then administered daily for 14 days by s.c. injection at rotating sites using a 25-gauge needle. In Week 19, the study was terminated, 24 hours after the last treatments, and serum and spleens were collected for surface marker and Treg analyses.
(§9) After two weeks of treatment, lymphocytes were isolated from spleen. T-cell surface markers (CD4, CD8, PD-1, CD28) and regulatory T cells (Tregs) were analyzed by flow cytometry.

[4] = tested on: regulatory T cells (Tregs); test: Experiment 5: regulatory T cells (FoxP3+/CD4+) by flow cytometry; type: in vivo, human MUC1.Tg C57BL/6 mice; conditions: TRIP 100 mg/kg or letrozole 0.8 mg/kg daily oral 14 days
Method: as §8, §9

[5] = tested on: IFN-γ; test: Experiment 5: serum IFN-γ cytokine analysis; type: in vivo, human MUC1.Tg C57BL/6 mice; conditions: TRIP 100 mg/kg or letrozole 0.8 mg/kg daily oral 14 days
Method: FIG. 13. Effects of TRIP on serum IFN-γ compared to estradiol and letrozole. Serum IFN-γ from untreated control, TRIP (100 mg/kg), estradiol (E2; 25 μg/kg), and letrozole (0.8 mg/kg) groups were analyzed following daily treatment for 14 days (n=8 all groups). **p<0.01, ***p<0.001.
TRIP and letrozole were prepared in DMSO and peanut oil as described above in Experiment 2 and administered daily for 14 days by oral gavage (100 μL). Estradiol was dissolved in 100% ethanol, diluted in PBS to achieve the desired concentration, and then administered daily for 14 days by s.c. injection at rotating sites using a 25-gauge needle. In Week 19, the study was terminated, 24 hours after the last treatments, and serum and spleens were collected for surface marker and Treg analyses.

[6] = Jurkat cells pretreated 1 hour with PD98059 50 μM, TFP 10 μM or LY294002 25 μM, then 2.5 μM TRIP 24 hours (FIG. 4)
[7] = Jurkat cells pretreated 1 hour with TFP 0.1-10.0 μM or LY294002 1-25 μM, then 2.5 μM TRIP 24 hours (FIG. 3)
[8] = mRNA in Jurkat cells in vitro, relative to control sample without TRIP compound

COc1cccc(-c2cc(=O)c3ccccc3o2)c1N [PD98059, reference compound]
TRIP-induced expression of IFN-γ [1, 6]: did not appear to affect | TRIP-induced expression of IL-2 [2, 6]: did not appear to affect

CN1CCN(CCCN2c3ccccc3Sc3ccc(C(F)(F)F)cc32)CC1 [TFP, trifluoperazine, reference compound]
TRIP-induced expression of IFN-γ [1, 6]: significantly decreased | TRIP-induced expression of IFN-γ [1, 7]: significantly decreased | TRIP-induced expression of IL-2 [2, 6]: significantly decreased | TRIP-induced expression of IL-2 [2, 7]: significantly decreased

OCCOCCOc1ccc(/C(=C(/CCCl)c2ccccc2)c2ccccc2)cc1 [Z-2-{2-[4-(4-chloro-1,2-diphenyl-but-1-enyl)-phenoxy]-ethoxy}-ethanol]
IFN-γ Expression [1, 8]: +++ (strong increase) | IL-2 Expression [2, 8]: +++ (strong increase)

N#Cc1ccc(C(c2ccc(C#N)cc2)n2cncn2)cc1 [letrozole, reference compound]
expression of surface markers, including CD8 and CD28, vs control ([3]; TRIP 100 mg/kg or letrozole 0.8 mg/kg daily oral 14 days): no difference | CD4+ T cell population ([3]; letrozole 0.8 mg/kg daily oral 14 days): lower | Tregs (FoxP3+/CD4+) compared to estradiol treatment [4]: significantly inhibited | serum IFN-γ concentrations compared to estradiol [5]: significantly increased

CC/C(=C(\c1ccccc1)c1ccc(OCCN(C)C)cc1)c1ccccc1 [tamoxifen, reference compound]
expression of IFN-γ compared to control ([1]; Jurkat cells, single agent 2.5 μM, 24 hours (FIG. 2)): no apparent effect | effect on the T cell activating ability of TRIP (IFN-γ expression) ([1]; Jurkat cells, tamoxifen 2.5 μM with TRIP 2.5 μM, 24 hours): does not affect
